Measurements from patent US10413552B2, “Method of treating medulloblastoma” (THE HOSPITAL FOR SICK CHILDREN, priority 2015, dated 2019).

What was measured:
[1] = tested on: D425 and D458 medulloblastoma cell lines; test: MTS cell proliferation assay in Group 3 medulloblastoma cell lines; type: cell-based; conditions: 48 hours treatment
Protocol: (§1) FIG. 1 illustrates the cytotoxic effect of piperlongumine, alsterpaullone, rottlerin and flunarizine in Group 3 medulloblastoma cell lines. Established medulloblastoma cell lines (D425 and D458) and a fetal neural stem cell line (hf5281) were treated with various concentrations of (a) piperlongumine, (b) alsterpaullone, (c) rottlerin and (d) flunarizine for 48 hours. Cell viability was measured by MTS assay. Data represent mean of triplicates±SEM.
(§2) D425 and D458 cells were grown as suspension cultures and seeded in 96-well microplates at 10,000 cells per well. Fetal normal human brain cells (hf5281) were grown as an adherent culture and seeded in 96-well microplates at 4,000 and 5,000 cells per well. Cells were treated for 48 h with different concentrations of Piperlongumine (PL; INDOFINE Chemical Company), alsterpaullone (ALP; A, G. Scientific), rottlerin (RTL; A. G. Scientific) and flunarizine (FZ; Sigma) or DMSO (control). Cell viability was determined by MTS proliferation assay (3-(4,5-dimethylthiazol-2-yl)-5-(3-carboxymethoxyphenyl)-2-(4-sulfophenyl)-2H-tetrazolium) and the absorbance was measured at 490 nm (CellTiter 96 Aqueous One Solution Reagent; Promega). Three independent experiments were performed with 16 repeats per treatment condition.

[2] = tested on: D458 cerebellar xenografts; test: D458 intracranial medulloblastoma xenograft; type: in vivo, athymic nude mice; conditions: for medulloblastoma growth (bioluminescence imaging, H&E): D458-luciferase xenograft, vs DMSO-treated controls; for medulloblastoma growth (bioluminescence imaging, H&E) / survival: s.c. for 2 weeks; for survival / survival difference, log-rank test p: D458 xenograft; for survival: Kaplan-Meier; for survival difference, log-rank test p: vs vehicle control
Protocol: (§3) Medulloblastoma intracranial xenografts were established in 5-6 week old athymic nude mice (Charles River Laboratories). Medulloblastoma cells (250,000 D425 and D458 cells) were implanted in the right cerebellum of mice. Six days after cell inoculation, animals were randomized into treatment cohorts, which included subcutaneous injections with vehicle control (10% DMSO), PL (50 mg/kg, daily for 2 weeks), ALP (30 mg/kg, daily for 2 weeks), RTL (20 mg/kg, every other day for 2 weeks) or FZ (50 mg/Kg, daily for 2 weeks).
In animals bearing D458-GFP/Luciferase xenografts, bioluminescence imaging was performed at 6 days after intracranial injection. Mice with a detectable signal were included in the study and tumor growth was monitored at one-week intervals using the IVIS Spectrum Optical In-vivo Imaging System (Caliper Life Sciences).
(§4) Animals with progressive neurological signs or weight loss greater than 20% were euthanized and the brains harvested and fixed in 10% formalin.
(§5) The Kaplan-Meier estimate and a log-rank test were used to generate survival curves. Experiments were performed in triplicate and results were expressed as mean±SEM. Statistical analysis was performed using GraphPad Prism 5 Software.
The efficacy of PL, ALP, RTL and FZ in established medulloblastoma xenografts representative of Group 3 medulloblastomas was then determined. D458 cells expressing luciferase were implanted in the right cerebellum of nude mice and bioluminescence imaging was performed at 6 days post inoculation. Animals with a detectable signal were treated by subcutaneous injection with PL (50 mg/kg, daily for 2 weeks), ALP (30 mg/kg, daily for 2 weeks), RTL (20 mg/kg, every other day for 2 weeks), FZ (50 mg/Kg, daily for 2 weeks) or vehicle control (10% DMSO).

[3] = tested on: hf5281 fetal normal human brain cells; test: MTS cell proliferation assay in fetal normal human brain cells; type: cell-based; conditions: hf5281, up to the highest concentration tested of 10 μM
Protocol: as §1, §2

[4] = tested on: D425 and D458 medulloblastoma cells; test: Western blot, induction of apoptosis; type: cell-based; conditions: 48 h treatment
Protocol: (§6) Cell lysates were prepared by adding RIPA buffer (Sigma) containing protease inhibitors (F. Hoffman-La Roche AG), 0.2 M sodium orthovanadate, 0.2 M sodium pyrophosphate and 0.2 M sodium fluoride. The Pierce BCA Protein Assay Kit (Thermo Scientific) was used to determine protein concentration. […] The following antibodies were used: PARP (1:1,000; Cell Signaling), AKT (1:1,000; Cell Signaling), phospho-AKT (1:2,000; Ser473, Cell Signaling), α-tubulin (1:1,000; Cell Signaling), anti-mouse IgG conjugated to horseradish peroxidase (1:5,000; Amersham Biosciences) and anti-rabbit IgG conjugated to horseradish peroxidase (1:5,000; Cell Signaling).
(§7) To determine the mechanisms by which PL and ALP exert their antitumor effect, D425 and D458 medulloblastoma cells were treated with both drugs for 48 h.

[5] = tested on: AKT pathway; test: Western blot, AKT pathway inhibition; type: cell-based; conditions: 48 h treatment, D458 and D425 cells
Protocol: as §6, §7

[6] = tested on: D425 cerebellar xenografts; test: D425 intracranial medulloblastoma xenograft; type: in vivo, athymic nude mice; conditions: for survival: Kaplan-Meier; for medulloblastoma growth (H&E): vs control group
Protocol: as §3, §4, §5

[7] = tested on: D425 and D458 medulloblastoma cells; test: Gene expression profiling and Gene Set Enrichment Analysis (GSEA) after treatment; type: cell-based, human
Protocol: D425 and D458 medulloblastoma cells were treated with 5 μM of PL, 5 μM of ALP or DMSO (control) for 48 h. RNA isolation was performed using the RNeasy Mini Kit (Qiagen) and gene expression data were generated using the Human PrimeView Arrays. Gene Set Enrichment Analysis (GSEA) was performed using gene sets from the National Cancer Institute (NCI), Gene Ontology (GO), Kyoto Encyclopedia of Genes and Genomes (KEGG), Protein Families (PFAM) and Biocarta pathway databases. Significant gene sets were identified (FDR<0.05; p<0.01) and visualized in Cytoscape and Enrichment Map software.
To identify downstream transcriptional events induced by ALP, genomic profiling of Group 3 medulloblastoma cell lines (D425 and D458) was conducted after treatment for 48 hours. […] Gene Set Enrichment Analysis (GSEA) was performed with gene sets compiled from the National Cancer Institute (NCI), Gene Ontology (GO), Kyoto Encyclopedia of Genes and Genomes (KEGG), Protein Families (PFAM) and Biocarta pathway databases. To visualize significant gene sets (FDR<0.05; p<0.01) as interaction networks, Cytoscape and Enrichment Map were used.

[8] = D425 and D458, 5 μM, 48 h vs DMSO, rank 1
[9] = D425 and D458, 5 μM, 48 h vs DMSO, rank 2
[10] = D425 and D458, 5 μM, 48 h vs DMSO, rank 3
[11] = D425 and D458, 5 μM, 48 h vs DMSO, rank 4
[12] = D425 and D458, 5 μM, 48 h vs DMSO, rank 5
[13] = D425 and D458, 5 μM, 48 h vs DMSO, rank 6
[14] = D425 and D458, 5 μM, 48 h vs DMSO, rank 7
[15] = D425 and D458, 5 μM, 48 h vs DMSO, rank 8
[16] = D425 and D458, 5 μM, 48 h vs DMSO, rank 9
[17] = D425 and D458, 5 μM, 48 h vs DMSO, rank 10

CC(=O)c1c(O)c(C)c(O)c(Cc2c(O)c3c(c(C(=O)/C=C/c4ccccc4)c2O)OC(C)(C)C=C3)c1O [rottlerin]
concentration at which cell proliferation was reduced [1]: 5 µM
medulloblastoma growth (bioluminescence imaging, H&E) [2]: Marked reduction in medulloblastoma growth
survival [2]: significant increase in survival
survival difference, log-rank test p [2]: 0.0262
reduction in cell proliferation [3]: little reduction in cell proliferation

COc1cc(/C=C/C(=O)N2CCC=CC2=O)cc(OC)c1OC [piperlongumine]
apoptosis (Western blot) [4]: induction of apoptosis
concentration at which cell proliferation was reduced [1]: 5 µM
medulloblastoma growth (bioluminescence imaging, H&E) [2]: Marked reduction in medulloblastoma growth
survival [2]: significant increase in survival
survival difference, log-rank test p [2]: 0.0011
reduction in cell proliferation [3]: little reduction in cell proliferation
AKT pathway activation (Western blot) [5]: AKT pathway inhibition
survival [6]: significantly increase survival
medulloblastoma growth (H&E) [6]: reduce medulloblastoma growth

O=C1Cc2c([nH]c3ccc([N+](=O)[O-])cc23)-c2ccccc2N1 [alsterpaullone, 9-nitro-7,12-dihydroindolo-[3,2-d][1]benzazepin-6(5)-one]
apoptosis (Western blot) [4]: induced apoptosis
concentration at which cell proliferation was reduced [1]: 1 µM
GSEA enriched pathway Cell Cycle Mitotic: Regulation [7, 8]: Down-Regulated
GSEA enriched pathway Systemic Lupus Erythematosus: Regulation [7, 8]: Up-Regulated
GSEA enriched pathway Mitotic M M G1 Phases: Regulation [7, 9]: Down-Regulated
GSEA enriched pathway RNA Pol 1 Promoter Opening: Regulation [7, 9]: Up-Regulated
GSEA enriched pathway Amyloids: Regulation [7, 10]: Up-Regulated
GSEA enriched pathway Mitotic Prometaphase: Regulation [7, 10]: Down-Regulated
GSEA enriched pathway DNA Replication: Regulation [7, 11]: Down-Regulated
GSEA enriched pathway Packaging of Telomere Ends: Regulation [7, 11]: Up-Regulated
GSEA enriched pathway G2 M Checkpoints: Regulation [7, 12]: Down-Regulated
GSEA enriched pathway Olfactory Signaling Pathway: Regulation [7, 12]: Up-Regulated
GSEA enriched pathway Autoimmune Thyroid Disease: Regulation [7, 13]: Up-Regulated
GSEA enriched pathway Metabolism of Non Coding RNA: Regulation [7, 13]: Down-Regulated
GSEA enriched pathway Activation of the Pre Replicative Complex: Regulation [7, 14]: Down-Regulated
GSEA enriched pathway Asthma: Regulation [7, 14]: Up-Regulated
GSEA enriched pathway Cell Cycle: Regulation [7, 15]: Down-Regulated
GSEA enriched pathway Class A1 Rhodopsin Like Receptors: Regulation [7, 15]: Up-Regulated
GSEA enriched pathway Activation of ATR in Response to Replication Stress: Regulation [7, 16]: Down-Regulated
GSEA enriched pathway Immunoregulatory Interactions Between a lymphoid and a non lymphoid Cell: Regulation [7, 16]: Up-Regulated
GSEA enriched pathway Cell Cycle Checkpoints: Regulation [7, 17]: Down-Regulated
GSEA enriched pathway RNA Pol 1 Transcription: Regulation [7, 17]: Up-Regulated
gene expression change vs DMSO-treated cells ([7]; D425 and D458, 48 hours, MYC, CDK7, RB1, CDK6, CCNB1, CDK5RAP2, CDK1, CDKN2C): down-regulation of genes involved in cell cycle
medulloblastoma growth (bioluminescence imaging, H&E) [2]: Marked reduction in medulloblastoma growth
survival [2]: significant increase in survival
survival difference, log-rank test p [2]: 0.0043
reduction in cell proliferation [3]: little reduction in cell proliferation
AKT pathway activation (Western blot) [5]: potently inhibited AKT pathway activation at lower concentrations than PL
survival [6]: significantly increase survival
medulloblastoma growth (H&E) [6]: reduce medulloblastoma growth

Fc1ccc(C(c2ccc(F)cc2)N2CCN(C/C=C/c3ccccc3)CC2)cc1 [flunarizine]
survival [2]: not able to prolong survival
